Laboratory results: patent US20040029891A1, “Use of PDE5 inhibitors in the treatment of polycystic ovary syndrome” (Pfizer Inc., priority 2002, published 2004)

Legend:
[1] = system: cattle; test: Uterine horn histology (endometrial epithelial thickness) in cattle; assay type: in vivo; conditions: intra-vaginally twice daily, 30 days, relative to control animals (FIG. 4)
Method: Oestrous was synchronised using two intramuscular injections of PGF2a (Lutalyse™) administered 11 days apart.
The pyrazolopyrimidinone PDE V inhibitor was administered intra-vaginally twice daily from day −3 of oestrus until day 6 of the following oestrus (30 days in total). Blood samples were collected daily, plasma was prepared as soon as possible and stored at −20° C. and then analysed for progesterone.
At the completion of the study (ie day 6 of the second oestrous period) the cattle were euthanised and the reproductive tract collected. A cross section of the left and right horns of each uterus was collected and stored in 10% Formalin and ten analysed histologically.

[2] = system: ob/ob mice; test: Plasma triglycerides in ob/ob mice, 5 day dosing; assay type: in vivo, mouse; conditions: summary in words
Method: (§1) The selective pyrazolopyrimidinone PDEV inhibitor compounds to be tested were solubilized in 10% DMSO/0.1% pluronics and dosed via oral gavage using mouse oral feeding needles (20 gauge, Popper & Sons, Inc., New Hyde Park, N.Y.). A volume of 4 ml/kg weight was administered for each dose. Compounds were tested at doses ranging from 1-50 mg/kg. Alternatively, the test selective pyrazopyrimidinone PDEV inhibitor compound was administered in the drinking water and found to produce similar reductions in plasma glucose and triglycerides to the reductions observed for the same compound when administered by oral gavage. […]
(§2) Mice were allowed to acclimate to the Pfizer animal facilities for 1 week prior to the start of the study. On day one, retro-orbital blood samples were obtained and plasma glucose was determined as described hereinafter. […] Body weight was measured on days 1 and 5 of the study, and food consumption was assessed over the 5 day period.
(§3) On the morning of the last day of the study mice were dosed with test pyrazolopyrimidinone PDEV compound or vehicle at approximately 8:00 am. […] Plasma samples were stored at −80° C. until analyzed.
(§4) Plasma glucose and triglycerides were measured using the Alcyon Clinical Chemistry Analyzer (Abbott Laboratories, Abbott Park, Ill.) using kits supplied by Abbott. […]

[3] = system: ob/ob mice; test: Plasma glucose in ob/ob mice, 5 day dosing; assay type: in vivo, mouse; conditions: summary in words
Method: as §1, §2, §3, §4

Compound | endometrial epithelial thickness [1] | serum triglyceride levels [2] | plasma glucose levels [3]
CCCOc1ccc(S(=O)(=O)N2CCN(CC)CC2)cc1-c1nc2c(CC)n(Cc3ccccn3)nc2c(=O)[nH]1 [PDE5 A, 3-ethyl-5-[5-(4-ethylpiperazin-1-ylsulphonyl)-2-n-propoxyphenyl]-2-(pyridin-2-yl)methyl-2,6-dihydro-7H-pyrazolo[4,3-d]pyrimidin-7-one] | increases endometrial epithelial thickness |  | 
CCCc1nn(C)c2c(=O)[nH]c(-c3cc(S(=O)(=O)N4CCN(C)CC4)ccc3OCC)nc12 [PDE5 C, 5-[2-ethoxy-5-(4-methyl-1-piperazinylsulphonyl)phenyl]-1-methyl-3-n-propyl-1,6-dihydro-7H-pyrazolo[4,3-d]pyrimidin-7-one] |  | reduce | reduce
